From patent US10508120B2, “TYK2 inhibitors and uses thereof” (Nimbus Lakshmi, Inc., priority 2017, dated 2019)

What was measured:
[1] = target: human TYK2 (JH2domain-pseudokinase) (Homo sapiens (Human), UniProt P29597); test: TYK2 JH2 Domain Binding Assay (KINOMEscan)
How it was run: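 Competition binding of an NFkB-DBD fusion of human TYK2 JH2 (G556–D888), expressed in HEK293 and used as crude extract at <0.1 nM, against immobilized ligand beads; 1 h at room temperature in PBS/Tween/DTT/BSA buffer, 0.9% DMSO.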

Tyk2 kinase domain (DH1) = Tyk2 kinase domain (DH1) (Homo sapiens (Human), UniProt P29597); test: Tyk2 Radioactive Kinase Assay; format: biochemical; details: 10 μM compound, 10 μM ATP; for inhibition at 10 µM: read-out: Tyk2 JH1% Inhibition @ 10 μM
Sequence of Tyk2 kinase domain (DH1) (P29597 897-1176): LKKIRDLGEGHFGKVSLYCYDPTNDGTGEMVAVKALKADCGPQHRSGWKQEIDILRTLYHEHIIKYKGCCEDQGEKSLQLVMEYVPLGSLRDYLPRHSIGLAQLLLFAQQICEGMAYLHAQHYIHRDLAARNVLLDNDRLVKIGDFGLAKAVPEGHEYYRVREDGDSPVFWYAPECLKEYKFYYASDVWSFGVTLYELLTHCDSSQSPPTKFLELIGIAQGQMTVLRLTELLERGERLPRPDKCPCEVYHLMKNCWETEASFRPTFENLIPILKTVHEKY
How it was run: (§1)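 Each kinase domain is incubated with test compound at 10 μM. Activity is then measured radiometrically and expressed as percent inhibition relative to uninhibited enzyme.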

JAK2 kinase domain (JH1) = JAK2 kinase domain (JH1) (Homo sapiens (Human), UniProt O60674); test: JAK2 Radioactive Kinase Assay; format: biochemical; details: 10 μM compound, 10 μM ATP; for inhibition at 10 µM: read-out: JAK2 JH1% Inhibition @ 10 μM
Sequence of JAK2 kinase domain (JH1) (O60674 849-1124): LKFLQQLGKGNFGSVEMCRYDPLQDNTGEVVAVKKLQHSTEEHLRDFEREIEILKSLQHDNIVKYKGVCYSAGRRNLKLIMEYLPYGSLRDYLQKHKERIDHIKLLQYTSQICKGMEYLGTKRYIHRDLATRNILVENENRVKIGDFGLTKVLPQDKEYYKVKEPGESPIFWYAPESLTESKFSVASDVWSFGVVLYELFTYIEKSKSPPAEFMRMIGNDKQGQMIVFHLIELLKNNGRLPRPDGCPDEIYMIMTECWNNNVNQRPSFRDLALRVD
How it was run: as §1

Sequence of human TYK2 (JH2domain-pseudokinase) (P29597 556-888): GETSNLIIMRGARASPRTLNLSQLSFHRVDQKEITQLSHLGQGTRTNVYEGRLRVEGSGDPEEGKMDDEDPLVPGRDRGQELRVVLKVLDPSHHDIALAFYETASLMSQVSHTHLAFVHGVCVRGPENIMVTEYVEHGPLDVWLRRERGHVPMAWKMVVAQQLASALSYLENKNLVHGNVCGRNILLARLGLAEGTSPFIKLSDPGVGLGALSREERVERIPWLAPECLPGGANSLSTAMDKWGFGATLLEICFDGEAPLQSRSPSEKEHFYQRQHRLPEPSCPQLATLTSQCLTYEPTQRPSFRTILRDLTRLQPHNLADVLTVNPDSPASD

| Compound | Kd [1] | inhibition at 10 µM (Tyk2 kinase domain (DH1)) | inhibition at 10 µM (JAK2 kinase domain (JH1)) | Tyk2 JH1% Inhibition @ 10 μM (Tyk2 kinase domain (DH1)) | JAK2 JH1% Inhibition @ 10 μM (JAK2 kinase domain (JH1)) |
| --- | --- | --- | --- | --- | --- |
| CNc1cc(-c2cn(CCN3CCN(C)CC3)c3ncccc23)nc2c(C(=O)N[C@@H]3CC[C@@H]3O)cnn12 [I-907, N-((1R,2S)-2-hydroxycyclobutyl)-7-(methylamino)-5-(1-(2-(4-methylpiperazin-1-yl)ethyl)-1H-pyrrolo[2,3-b]pyridin-3-yl)pyrazolo[1,5-a]pyrimidine-3-carboxamide] | 0.2 to 1 nM | < 50% | < 50% |  |  |
| CNc1cc(Nc2cccn(C3CCCN(CCC#N)C3)c2=O)nc2c(C(=O)N[C@@H]3C[C@@H]3F)cnn12 (stereo partly drawn) [I-912] | 0.2 to 1 nM | < 50% | < 50% |  |  |
| CNC(=O)c1nscc1Nc1cc(NC)n2ncc(C(=O)NC3CC3)c2n1 [I-913] | 0.2 to 1 nM | < 50% | < 50% |  |  |
| CNc1cc(-c2cn(CCN3CCN(C)CC3)c3ncccc23)nc2c(C(=O)N[C@@H]3CC[C@H]3O)cnn12 [I-921, N-((1R,2R)-2-hydroxycyclobutyl)-7-(methylamino)-5-(1-(2-(4-methylpiperazin-1-yl)ethyl)-1H-pyrrolo[2,3-b]pyridin-3-yl)pyrazolo[1,5-a]pyrimidine-3-carboxamide] | 0.2 to 1 nM | < 50% | < 50% |  |  |
| CNc1cc(Nc2cccn([C@H]3CCC[C@@H](OC)C3)c2=O)nc2c(C(=O)NCC3(CO)CC3)cnn12 [I-928] | 0.2 to 1 nM | < 50% | < 50% |  |  |
| CNc1cc(Nc2cccn([C@@H]3CCC[C@H](OC)C3)c2=O)nc2c(C(=O)NCC3(CO)CC3)cnn12 [I-929] | < 0.2 nM | < 50% | < 50% |  |  |
| CNc1cc(Nc2cccn([C@H]3CCN(CCF)C3)c2=O)nc2c(C(=O)N[C@@H]3C[C@@H]3F)cnn12 [I-934] | < 0.2 nM | < 50% | < 50% |  |  |
| CNc1cc(Nc2cccn(-c3oc(C)nc3C)c2=O)nc2c(C(=O)N[C@@H]3C[C@@H]3F)cnn12 [I-938] | 0.2 to 1 nM | < 50% | < 50% |  |  |
| CNc1cc(Nc2cccn(-c3ccccc3F)c2=O)nc2c(C(=O)NCC(C)CO)cnn12 (stereo not drawn) [I-941] | < 0.2 nM | < 50% | < 50% |  |  |
| CNc1cc(Nc2cccn(-c3cccc(F)c3)c2=O)nc2c(C(=O)NCC(C)CO)cnn12 (stereo not drawn) [I-947] | < 0.2 nM | < 50% | < 50% |  |  |
| CNc1cc(Nc2cccc(-c3cn(C)nc3F)n2)nc2c(C(=O)N[C@H]3CC[C@H]3O)cnn12 [I-948] | < 0.2 nM | < 50% | < 50% |  |  |
| CNc1cc(Nc2cccc(-c3cn(C)nc3F)n2)nc2c(C(=O)N[C@@H]3CC[C@@H]3O)cnn12 [I-949] | 1 to 10 nM | < 50% | < 50% |  |  |
| CNc1cc(Nc2cccn([C@H]3CCC[C@@H](OC)C3)c2=O)nc2c(C(=O)NCC(C)(C)CO)cnn12 [I-950] | 0.2 to 1 nM | < 50% | < 50% |  |  |
| CNc1cc(-c2cn(CCN3CCN(C)CC3)c3ncccc23)nc2c(C(=O)N[C@@H]3CC[C@H]3OC)cnn12 [I-953] | 0.2 to 1 nM | < 50% | < 50% |  |  |
| CNc1cc(Nc2cccn(-c3cncc(F)c3)c2=O)nc2c(C(=O)N[C@@H]3C[C@@H]3F)cnn12 [I-968] | < 0.2 nM | < 50% | < 50% |  |  |
| CNc1cc(Nc2cccn(-c3ccccn3)c2=O)nc2c(C(=O)N[C@@H]3CC[C@H]3O)cnn12 [I-972] | 0.2 to 1 nM | < 50% | < 50% |  |  |
| CNc1cc(Nc2cccnc2OC2CC2)nc2c(-c3cn(C(C)C)nn3)cnn12 [I-985, N5-(2-cyclopropoxypyridin-3-yl)-3-(1-isopropyl-1H-1,2,3-triazol-4-yl)-N7-methylpyrazolo[1,5-a]pyrimidine-5,7-diamine] | 0.2 to 1 nM | < 50% | < 50% |  |  |
| CNc1cc(Nc2cccn([C@H]3CCN(CCC#N)C3)c2=O)nc2c(C(=O)N[C@@H]3C[C@@H]3F)cnn12 [I-986] | < 0.2 nM | < 50% | < 50% |  |  |
| CNc1cc(Nc2cccn([C@@H]3CCN(CCC#N)C3)c2=O)nc2c(C(=O)N[C@@H]3C[C@@H]3F)cnn12 [I-987] | < 0.2 nM | < 50% | < 50% |  |  |
| CNc1cc(Nc2cccn([C@@H]3CCCC[C@@H]3OC)c2=O)nc2c(C(=O)NCC3(CO)CC3)cnn12 [I-991] | 1 to 10 nM | < 50% | < 50% |  |  |

Continued, in another order:

| Kd [1] | inhibition at 10 µM (Tyk2 kinase domain (DH1)) | inhibition at 10 µM (JAK2 kinase domain (JH1)) | Compound | Tyk2 JH1% Inhibition @ 10 μM (Tyk2 kinase domain (DH1)) | JAK2 JH1% Inhibition @ 10 μM (JAK2 kinase domain (JH1)) |
| --- | --- | --- | --- | --- | --- |
| 0.2 to 1 nM | < 50% | < 50% | CNc1cc(Nc2cccn(C3CCN(CCF)CC3)c2=O)nc2c(C(=O)N[C@@H]3CC[C@@H]3O)cnn12 [I-897] |  |  |
| < 0.2 nM | < 50% | < 50% | CNc1cc(Nc2cccn(C3CCN(CCF)CC3)c2=O)nc2c(C(=O)N[C@H]3CC[C@@H]3O)cnn12 [I-899] |  |  |
| 0.2 to 1 nM | < 50% | < 50% | CNc1cc(Nc2cccn([C@@H]3CCCN(CCF)C3)c2=O)nc2c(C(=O)N[C@@H]3C[C@@H]3F)cnn12 [I-901] |  |  |
| < 0.2 nM | < 50% | < 50% | CNc1cc(Nc2cccn([C@H]3CC[C@@]4(CCCO4)CC3)c2=O)nc2c(C(=O)NC3CC3)cnn12 [I-910] |  |  |
| 1 to 10 nM | < 50% | < 50% | CNc1cc(Nc2cccn([C@@H]3CCCC[C@@H]3OC)c2=O)nc2c(C(=O)N[C@@H]3C[C@@H]3F)cnn12 [I-915] |  |  |
| < 0.2 nM | < 50% | < 50% | CNc1cc(Nc2cc(Cl)cn(C3CCN(C)CC3)c2=O)nc2c(C(=O)N[C@H]3CC[C@@H]3O)cnn12 [I-931] |  |  |
| 0.2 to 1 nM | < 50% | < 50% | CNc1cc(Nc2cccn([C@H]3CCN(CCF)C3)c2=O)nc2c(C(=O)NC3CC3)cnn12 [I-932] |  |  |
| < 0.2 nM | < 50% | < 50% | CNc1cc(Nc2cccn([C@@H]3CCN(CCF)C3)c2=O)nc2c(C(=O)NC3CC3)cnn12 [I-933] |  |  |
| < 0.2 nM | < 50% | < 50% | CNc1cc(Nc2cccn([C@@H]3CCN(CCF)C3)c2=O)nc2c(C(=O)N[C@@H]3C[C@@H]3F)cnn12 [I-935] |  |  |
| 1 to 10 nM | < 50% | < 50% | CNc1cc(Nc2cccn(-c3oc(C)nc3C)c2=O)nc2c(C(=O)NC3CC3)cnn12 [I-937] |  |  |
| < 0.2 nM | < 50% | < 50% | CNc1cc(Nc2cccn(C3CCCCC3)c2=O)nc2c(C(=O)N[C@H]3CC[C@H]3O)cnn12 [I-942] |  |  |
| < 0.2 nM | < 50% | < 50% | CNc1cc(Nc2cccn(C3CCCCC3)c2=O)nc2c(C(=O)NCC(C)CO)cnn12 (stereo not drawn) [I-944] |  |  |
| < 0.2 nM |  |  | CNc1cc(Nc2cccn([C@H]3CC[C@H]3O)c2=O)nc2c(C(=O)NC3CC3)cnn12 [I-956] | A (percent inhibition at 10 μM lower than 50) | A (percent inhibition at 10 μM lower than 50) |
| 1 to 10 nM | < 50% | < 50% | CNc1cc(Nc2cccn([C@@H]3CCC[C@@H]3O)c2=O)nc2c(C(=O)NC3CC3)cnn12 [I-964] |  |  |
| 0.2 to 1 nM | < 50% | < 50% | CNc1cc(Nc2cccn([C@@H]3CCC[C@@H]3O)c2=O)nc2c(C(=O)N[C@@H]3C[C@@H]3F)cnn12 [I-966] |  |  |
| < 0.2 nM | < 50% | < 50% | CNc1cc(Nc2cccn(-c3cncc(F)c3)c2=O)nc2c(C(=O)NC3CC3)cnn12 [I-967] |  |  |
| 0.2 to 1 nM | < 50% | < 50% | CNc1cc(Nc2cccn(C(C)C)c2=O)nc2c(C(=O)N[C@@H]3CC[C@@H]3O)cnn12 [I-978] |  |  |
| 0.2 to 1 nM | < 50% | < 50% | CNc1cc(Nc2cccn(C(C)C)c2=O)nc2c(C(=O)N[C@H]3CC[C@@H]3O)cnn12 [I-982] |  |  |
| > 10 nM | < 50% | < 50% | CNc1cc(Nc2cccn([C@@H]3CCCC[C@@H]3OC)c2=O)nc2c(C(=O)NC3CC3)cnn12 [I-989] |  |  |
| 1 to 10 nM | < 50% | < 50% | CNc1cc(Nc2cccn([C@@H]3CCCC[C@@H]3OC)c2=O)nc2c(C(=O)NCC(C)(C)CO)cnn12 [I-990] |  |  |
| < 0.2 nM |  |  | CNc1cc(Nc2cccn([C@H]3CC[C@@H]3OC)c2=O)nc2c(C(=O)N[C@@H]3C[C@@H]3F)cnn12 [I-997] | A (percent inhibition at 10 μM lower than 50) | A (percent inhibition at 10 μM lower than 50) |
| < 0.2 nM |  |  | CNc1cc(Nc2cccn([C@H]3CC[C@@H]3O)c2=O)nc2c(C(=O)N[C@@H]3C[C@@H]3F)cnn12 [I-998] | A (percent inhibition at 10 μM lower than 50) | A (percent inhibition at 10 μM lower than 50) |
| 1 to 10 nM |  |  | CNc1cc(Nc2cccn(C3CCCCC3)c2=O)nc2c(C(=O)N[C@H]3CC[C@H]3O)cnn12 [I-1001] | A (percent inhibition at 10 μM lower than 50) | A (percent inhibition at 10 μM lower than 50) |
| 0.2 to 1 nM | < 50% | < 50% | CNc1cc(Nc2cccn(C3CCCCC3)c2=O)nc2c(C(=O)N[C@H]3CC[C@@H]3O)cnn12 [I-1003] |  |  |
